In patent US20020028836A1, “Potassium channel openers” (priority 2000, published 2002):

Legend:
[1] = test system: primary cultured guinea-pig urinary bladder (GPB) cells; assay: Membrane hyperpolarization (MHP) assay, DiBAC(4)3 / FLIPR; type: cell-based; settings: Cavia porcellus; for EC50: concentration that elicits 50% of the maximal response for the test sample; for Emax: maximal steady-state hyperpolarization, normalized to response with 10 μM P1075 (100%)
Procedure, shortened: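 Primary smooth-muscle cells from male guinea-pig bladder, grown to confluence, loaded 30 min at 37° C with 5 μM DiBAC(4)3 in HEPES buffer pH 7.4. Fluorescence drop on FLIPR followed 25 min after compound; steady-state hyperpolarization normalized to 10 μM P1075 (100%), EC50 from four-parameter fit of five concentrations.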

Compound	melting point [°C]	EC50 [1] [µM]	Emax [1] [%]
Cc1ccc(C(=O)NC(NC(=S)Nc2cccc(C(F)(F)F)c2F)C(F)(F)F)cc1 (centres unmarked) [Example 5, 4-methyl-N-[2,2,2-trifluoro-1-({[2-fluoro-3-(trifluoromethyl)anilino]carbothioyl}amino)ethyl]benzamide]	179 to 181	1.08	106
COc1ccc(NC(=S)NC(NC(=O)c2ccc(C)cc2)C(F)(F)F)cc1 (centres unmarked) [Example 6, 4-methyl-N-(2,2,2-trifluoro-1-{[(4-methoxyanilino)carbothioyl]amino}ethyl)benzamide]	193 to 194	1.55	107
Cc1ccc(C(=O)NC(NC(=S)Nc2ccc(Cl)nc2)C(F)(F)F)cc1 (centres unmarked) [Example 7, N-[1-({[(6-chloro-3-pyridinyl)amino]carbothioyl}amino)-2,2,2-trifluoroethyl]-4-methylbenzamide]	199 to 200	0.45	101
COc1ccccc1NC(=S)NC(NC(=O)c1ccc(C)cc1)C(F)(F)F (centres unmarked) [Example 8, 4-methyl-N-(2,2,2-trifluoro-1-{[(2-methoxyanilino)carbothioyl]amino}ethyl)benzamide]	212 to 214	≥ 10	10
Cc1ccc(NC(=S)NC(NC(=O)c2ccc(C)cc2)C(F)(F)F)cc1 (centres unmarked) [Example 10, 4-methyl-N-{2,2,2-trifluoro-1-[(4-toluidinocarbothioyl)amino]ethyl}benzamide]	192 to 193	0.7	65
COc1cccc(NC(=S)NC(NC(=O)c2ccc(C)cc2)C(F)(F)F)c1 (centres unmarked) [Example 12, 4-methyl-N-(2,2,2-trifluoro-1-{[(3-methoxyanilino)carbothioyl]amino}ethyl)benzamide]	206 to 208	≥ 10	4
Cc1ccc(C(=O)NC(NC(=S)Nc2cccc(C)c2)C(F)(F)F)cc1 (centres unmarked) [Example 16, 4-methyl-N-{2,2,2-trifluoro-1-[(3-toluidinocarbothioyl)amino]ethyl}benzamide]	197 to 198	0.37	65
O=C(NC(NC(=S)Nc1cccnc1)C(F)(F)F)c1ccc(Cl)cc1 (centres unmarked) [Example 19, 4-chloro-N-(2,2,2-trifluoro-1-{[(3-pyridinylamino)carbothioyl]amino}ethyl)benzamide]	147 to 149	0.06	117
Cc1ccccc1C(=O)NC(NC(=S)Nc1cccnc1)C(C)(C)C (centres unmarked) [Example 26, N-(2,2-dimethyl-1-{[(3-pyridinylamino)carbothioyl]amino}propyl)-2-methylbenzamide]	186 to 187	0.99	80
Cc1ccc(C(=O)NC(C)NC(=S)Nc2cccc([N+](=O)[O-])c2)cc1 (centres unmarked) [Example 29, 4-methyl-N-(1-{[(3-nitroanilino)carbothioyl]amino}ethyl)benzamide]	172 to 175	1	28
Cc1ccc(C(=O)NC(Cc2ccccc2)NC(=S)Nc2cccc([N+](=O)[O-])c2)cc1 (centres unmarked) [Example 30, 4-methyl-N-(1-{[(3-nitroanilino)carbothioyl]amino}-2-phenylethyl)benzamide]	170 to 171	3.2	22
Cc1ccc(C(=O)NC(CF)NC(=S)Nc2cccc([N+](=O)[O-])c2)cc1 (centres unmarked) [Example 32, N-(2-fluoro-1-{[(3-nitroanilino)carbothioyl]amino}ethyl)-4-methylbenzamide]	148 to 155	1	15
Cc1ccc(C(=O)NC(NC(=S)Nc2cccnc2)C(C)C)cc1 (centres unmarked) [Example 35, 4-methyl-N-(2-methyl-1-{[(3-pyridinylamino)carbothioyl]amino}propyl)benzamide]	184 to 186	13.1	40
CC[C@H](C)[C@H](NC(=O)c1ccc(C)cc1)NC(=S)Nc1cccnc1 [Example 36, 4-methyl-N-((1R,2S)-2-methyl-1-{[(3-pyridinylamino)carbothioyl]amino}butyl)benzamide]	102 to 104	25.5	50
Cc1ccc(C(=O)NC(N2CCN(c3cccc(F)c3)C2=S)C(Cl)(Cl)Cl)cc1 (centres unmarked) [Example 37, 4-methyl-N-{2,2,2-trichloro-1-[3-(3-fluorophenyl)-2-thioxo-1-imidazolidinyl]ethyl}benzamide]	184 to 186	0.78	85
Cc1ccccc1C(=O)NC(NC(=O)Nc1cccnc1)C(Cl)(Cl)Cl (centres unmarked) [Example 39, 2-methyl-N-(2,2,2-trichloro-1-{[(3-pyridinylamino)carbonyl]amino}ethyl)benzamide]	182 to 184	0.46	101
N#CN=C(Nc1cccnc1)NC(NC(=O)c1cccc(Cl)c1)C(F)(F)C(F)(F)F (centres unmarked) [Example 122, 3-chloro-N-(1-{[(cyanoimino)(3-pyridinylamino)methyl]amino}-2,2,3,3,3-pentafluoropropyl)benzamide]	183 to 185	–	–

Compound	melting point [°C]	EC50 [1] [µM]	Emax [1] [%]
CCCC(Cl)(Cl)C(NC(=O)c1ccc(Cl)cc1)NC(=N[N+](=O)[O-])Nc1cccnc1 (centres unmarked) [Example 136, 4-chloro-N-(2,2-dichloro-1-{[(nitroimino)(3-pyridinylamino)methyl]amino}pentyl)benzamide]	198 to 200	–	–
CC(Cl)(Cl)C(NC(=O)c1ccc(Cl)cc1)NC(=N[N+](=O)[O-])Nc1cccnc1 (centres unmarked) [Example 137, 4-chloro-N-(2,2-dichloro-1-{[(nitroimino)(3-pyridinylamino)methyl]amino}propyl)benzamide]	170 to 172	–	–
CC(Cl)(Cl)C(NC(=O)c1cccc(Cl)c1)NC(=N[N+](=O)[O-])Nc1cccnc1 (centres unmarked) [Example 138, 3-chloro-N-(2,2-dichloro-1-{[(nitroimino)(3-pyridinylamino)methyl]amino}propyl)benzamide]	160 to 161	–	–
CC(C)(C)C(NC(=O)c1ccc(Cl)cc1)NC(=NS(=O)(=O)c1ccccc1)Nc1cccnc1 (centres unmarked) [Example 139, 4-chloro-N-(2,2-dimethyl-1-{[[(phenylsulfonyl)imino](3-pyridinylamino)methyl]amino}propyl)benzamide]	196 to 197	–	–
CC(C)(C)CC(NC(=O)c1ccc(Cl)cc1)NC(=NS(=O)(=O)c1ccccc1)Nc1cccnc1 (centres unmarked) [Example 140, 4-chloro-N-(3,3-dimethyl-1-{[[(phenylsulfonyl)imino](3-pyridinylamino)methyl]amino}butyl)benzamide]	199 to 200	–	–
CC(C)(C)C(NC(=O)Nc1ccccc1F)NC(=O)c1ccc(Cl)cc1 (centres unmarked) [Example 147, 4-chloro-N-(1-{[(2-fluoroanilino)carbonyl]amino}-2,2-dimethylpropyl)benzamide]	229 to 230	–	–
CCCC(Cl)(Cl)C(NC(=O)c1ccc(Cl)cc1)NC(=C[N+](=O)[O-])Nc1cccnc1 (centres unmarked) [Example 151, 4-chloro-N-(2,2-dichloro-1-{[2-nitro-1-(3-pyridinylamino)ethenyl]amino}pentyl)benzamide]	185 to 186	–	–
CC(C)(C)C(NC(=O)c1ccc(Cl)cc1)NC(Nc1cccnc1)=C(C#N)C#N (centres unmarked) [Example 152, 4-chloro-N-(1-{[2,2-dicyano-1-(3-pyridinylamino)vinyl]amino}-2,2-dimethylpropyl)benzamide]	213 to 214	–	–
COc1ncccc1NC(=NC#N)NC(NC(=O)c1cc(F)cc(F)c1)C(C)(Cl)Cl (centres unmarked) [Example 157, N-[2,2-dichloro-1-({(cyanoimino)[(2-methoxy-3-pyridinyl)amino]methyl}amino)propyl]-3,5-difluorobenzamide]	125 to 126	–	–
COc1ncccc1NC(=NC#N)NC(NC(=O)c1cc(Cl)cc(Cl)c1)C(C)(Cl)Cl (centres unmarked) [Example 164, 3,5-dichloro-N-[2,2-dichloro-1-({(cyanoimino)[(2-methoxy-3-pyridinyl)amino]methyl}amino)propyl]benzamide]	149 to 150	–	–
COc1ccccc1NC(=NC#N)NC(NC(=O)c1ccc(Cl)cc1)C(C)(Cl)Cl (centres unmarked) [Example 181, 4-chloro-N-(2,2-dichloro-1-{[(cyanoimino)(2-methoxyanilino)methyl]amino}propyl)benzamide]	185 to 186	–	–
COc1ccc(NC(=NC#N)NC(NC(=O)c2cccc(Cl)c2)C(C)(Cl)Cl)cn1 (centres unmarked) [Example 182, 3-chloro-N-[2,2-dichloro-1-({(cyanoimino)[(6-methoxy-3-pyridinyl)amino]methyl}amino)propyl]benzamide]	189 to 190	–	–
COc1cc(OC)cc(C(=O)NC(NC(=NC#N)Nc2ccc(C(F)(F)F)nc2)C(C)(Cl)Cl)c1 (centres unmarked) [Example 183, N-{2,2-dichloro-1-[((cyanoimino){[6-(trifluoromethyl)-3-pyridinyl]amino}methyl)amino]propyl}-3,5-dimethoxybenzamide]	187 to 189	–	–
CC(Cl)(Cl)C(NC(=O)c1cc(Cl)cc(Cl)c1)NC(=NS(=O)(=O)C(F)(F)F)Nc1cccnc1 (centres unmarked) [Example 190, 3,5-dichloro-N-{2,2-dichloro-1-[((3-pyridinylamino){[(trifluoromethyl)sulfonyl]imino}methyl)amino]propyl}benzamide]	213 to 215	–	–
CC(Cl)(Cl)C(NC(=O)c1ccc(C(F)(F)F)cc1)NC(=NS(=O)(=O)C(F)(F)F)Nc1cccnc1 (centres unmarked) [Example 191, N-{2,2-dichloro-1-[((3-pyridinylamino){[(trifluoromethyl)sulfonyl]imino}methyl)amino]propyl}-4-(trifluoromethyl)benzamide]	214 to 215	–	–
CC(Cl)(Cl)C(NC(=O)c1cccnc1)NC(=NC#N)Nc1ccc(Cl)nc1 (centres unmarked) [Example 193, N-(2,2-dichloro-1-{[[(6-chloro-3-pyridinyl)amino](cyanoimino)methyl]amino}propyl)nicotinamide]	212 to 213	–	–
